pIC50: −log10 of the molar value. Values joined by “and” are separate entries in the source; they are usually repeats but may differ in a detail not shown here. Equal entries are not always repeated.
Test system: 628569-122-R-J1-PDC complex spheroid viability
Assay: Anticancer human tumor 628569-122-R-J1-PDC patient-derived head and neck squamous carcinoma cell line growth inhibition [CLK]
Conditions: for viability, T/C: stronger effect = lower value
Summary of the method: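 Patient-derived tumor cells grown as complex spheroids with HUVEC endothelial cells and mesenchymal stem cells, treated with drug combinations. Concentrations descend in half-log steps from near clinical Cmax, or from 10 microM if Cmax unknown.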

[1] = curve of first compound, second compound 0.0316 µM
[2] = curve of first compound, second compound 0.1 µM
[3] = curve of first compound, second compound 0.316 µM
[4] = curve of first compound, second compound 1 µM
[5] = curve of first compound, second compound 3.16 µM
[6] = curve of first compound, second compound 10 µM
[7] = second compound 0.0316 µM, first compound 0.0316 µM
[8] = second compound 0.0316 µM, first compound 0.1 µM
[9] = second compound 0.0316 µM, first compound 0.316 µM
[10] = second compound 0.0316 µM, first compound 1 µM
[11] = second compound 0.0316 µM, first compound 3.16 µM
[12] = second compound 0.0316 µM, first compound 10 µM
[13] = second compound 0.1 µM, first compound 0.0316 µM
[14] = second compound 0.1 µM, first compound 0.1 µM
[15] = second compound 0.1 µM, first compound 0.316 µM
[16] = second compound 0.1 µM, first compound 1 µM
[17] = second compound 0.1 µM, first compound 3.16 µM
[18] = second compound 0.1 µM, first compound 10 µM
[19] = second compound 0.316 µM, first compound 0.0316 µM
[20] = second compound 0.316 µM, first compound 0.1 µM
[21] = second compound 0.316 µM, first compound 0.316 µM
[22] = second compound 0.316 µM, first compound 1 µM
[23] = second compound 0.316 µM, first compound 3.16 µM
[24] = second compound 0.316 µM, first compound 10 µM
[25] = second compound 1 µM, first compound 0.0316 µM
[26] = second compound 1 µM, first compound 0.1 µM
[27] = second compound 1 µM, first compound 0.316 µM
[28] = second compound 1 µM, first compound 1 µM
[29] = second compound 1 µM, first compound 3.16 µM
[30] = second compound 1 µM, first compound 10 µM
[31] = second compound 3.16 µM, first compound 0.0316 µM
[32] = second compound 3.16 µM, first compound 0.1 µM
[33] = second compound 3.16 µM, first compound 0.316 µM
[34] = second compound 3.16 µM, first compound 1 µM
[35] = second compound 3.16 µM, first compound 3.16 µM
[36] = second compound 3.16 µM, first compound 10 µM
[37] = second compound 10 µM, first compound 0.0316 µM
[38] = second compound 10 µM, first compound 0.1 µM
[39] = second compound 10 µM, first compound 0.316 µM
[40] = second compound 10 µM, first compound 1 µM
[41] = second compound 10 µM, first compound 3.16 µM
[42] = second compound 10 µM, first compound 10 µM
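Also: spheroids exposed to agents for seven days before readout.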
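For viability, T/C in this document: 100% = DMSO vehicle control viability.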

COc1ccc([C@@H](O)c2cc(-c3ncnc4cc(N5CCOCC5)ccc34)c(F)cc2Cl)nn1 + CNC(=O)c1ccc(Nc2nc(OC3CCCC3)c3c(-c4ccc5nc(C)oc5c4)c[nH]c3n2)c(OC)c1
pIC50 [1]: 5.70
pIC50 [2]: 6.59
pIC50 [3]: > 7.50
pIC50 [4]: > 7.50
pIC50 [5]: > 7.50
pIC50 [6]: > 7.50
viability, T/C [7]: 83.7%
viability, T/C [8]: 80.5%
viability, T/C [9]: 78.1%
viability, T/C [10]: 61.8%
viability, T/C [11]: 42.3%
viability, T/C [12]: 35%
viability, T/C [13]: 54.5%
viability, T/C [14]: 47.7%
viability, T/C [15]: 49.6%
viability, T/C [16]: 48.4%
viability, T/C [17]: 41.9%
viability, T/C [18]: 33.8%
viability, T/C [19]: 47.5%
viability, T/C [20]: 41.4%
viability, T/C [21]: 41.7%
viability, T/C [22]: 39%
viability, T/C [23]: 39.4%
viability, T/C [24]: 29.7%
viability, T/C [25]: 46.8%
viability, T/C [26]: 42.9%
viability, T/C [27]: 41.7%
viability, T/C [28]: 29.6%
viability, T/C [29]: 36.4%
viability, T/C [30]: 31.4%
viability, T/C [31]: 33.2%
viability, T/C [32]: 39.5%
viability, T/C [33]: 34.4%
viability, T/C [34]: 37.4%
viability, T/C [35]: 38.4%
viability, T/C [36]: 21%
viability, T/C [37]: 45.1%
viability, T/C [38]: 41.7%
viability, T/C [39]: 32.2%
viability, T/C [40]: 36.1%
viability, T/C [41]: 27.8%
viability, T/C [42]: 18.9%

NC(=O)C(=Cn1cnc(-c2cc(C(F)(F)F)cc(C(F)(F)F)c2)n1)c1cncnc1
viability, T/C (compound 0.00949 µM): 71.1% and 74%
viability, T/C (compound 0.03 µM): 66.9% and 66.1%
viability, T/C (compound 0.0949 µM): 52.1% and 56.7%
viability, T/C (compound 0.3 µM): 63.8% and 49.3%
viability, T/C (compound 0.949 µM): 44.3% and 35.1%
viability, T/C (compound 3 µM): 41.7% and 33.4%
pIC50 (curve of compound): 6.18 and 6.68

CC(C)CC(NC(=O)C(Cc1ccccc1)NC(=O)c1cnccn1)B(O)O (stereo not drawn) + CN1CCN(c2cc(C(=O)Nc3cc4cc(-c5cnn(C)c5)ccc4cn3)ccn2)CC1
pIC50 [1]: 8.36
pIC50 [2]: 8.77
pIC50 [3]: > 9.02
pIC50 [4]: > 9.02
pIC50 [5]: > 9.02
pIC50 [6]: > 9.02
viability, T/C (second compound 0.0316 µM, first compound 0.000949 µM): 83.3%
viability, T/C (second compound 0.0316 µM, first compound 0.003 µM): 70.2%
viability, T/C (second compound 0.0316 µM, first compound 0.00949 µM): 9.85%
viability, T/C (second compound 0.0316 µM, first compound 0.03 µM): 8.4%
viability, T/C (second compound 0.0316 µM, first compound 0.0949 µM): 6.4%
viability, T/C (second compound 0.0316 µM, first compound 0.3 µM): 4.25%
viability, T/C (second compound 0.1 µM, first compound 0.000949 µM): 62.6%
viability, T/C (second compound 0.1 µM, first compound 0.003 µM): 37.3%
viability, T/C (second compound 0.1 µM, first compound 0.00949 µM): 7.61%
viability, T/C (second compound 0.1 µM, first compound 0.03 µM): 6.34%
viability, T/C (second compound 0.1 µM, first compound 0.0949 µM): 6.04%
viability, T/C (second compound 0.1 µM, first compound 0.3 µM): 5.02%
viability, T/C (second compound 0.316 µM, first compound 0.000949 µM): 37.8%
viability, T/C (second compound 0.316 µM, first compound 0.003 µM): 4.9%
viability, T/C (second compound 0.316 µM, first compound 0.00949 µM): 10.6%
viability, T/C (second compound 0.316 µM, first compound 0.03 µM): 4.39%
viability, T/C (second compound 0.316 µM, first compound 0.0949 µM): 4.89%
viability, T/C (second compound 0.316 µM, first compound 0.3 µM): 2.72%
viability, T/C (second compound 1 µM, first compound 0.000949 µM): 9.15%
viability, T/C (second compound 1 µM, first compound 0.003 µM): 8.04%
viability, T/C (second compound 1 µM, first compound 0.00949 µM): 4.76%
viability, T/C (second compound 1 µM, first compound 0.03 µM): 6.26%
viability, T/C (second compound 1 µM, first compound 0.0949 µM): 7.32%
viability, T/C (second compound 1 µM, first compound 0.3 µM): 5.71%
viability, T/C (second compound 3.16 µM, first compound 0.000949 µM): 6.67%
viability, T/C (second compound 3.16 µM, first compound 0.003 µM): 6.69%
viability, T/C (second compound 3.16 µM, first compound 0.00949 µM): 5.84%
viability, T/C (second compound 3.16 µM, first compound 0.03 µM): 5.55%
viability, T/C (second compound 3.16 µM, first compound 0.0949 µM): 5.83%
viability, T/C (second compound 3.16 µM, first compound 0.3 µM): 4.09%
viability, T/C (second compound 10 µM, first compound 0.000949 µM): 8.8%
viability, T/C (second compound 10 µM, first compound 0.003 µM): 1.66%
viability, T/C (second compound 10 µM, first compound 0.00949 µM): 2.36%
viability, T/C (second compound 10 µM, first compound 0.03 µM): 1.91%
viability, T/C (second compound 10 µM, first compound 0.0949 µM): 4.23%
viability, T/C (second compound 10 µM, first compound 0.3 µM): 0.93%

C#Cc1c(F)ccc2cc(O)cc(-c3ncc4c(N5CC6CCC(C5)N6)nc(OCC56CCCN5CC(F)C6)nc4c3F)c12 (stereo not drawn) + CNC(=O)c1ccc(Nc2nc(OC3CCCC3)c3c(-c4ccc5nc(C)oc5c4)c[nH]c3n2)c(OC)c1
pIC50 [1]: < 5.00
pIC50 [2]: < 5.00
pIC50 [3]: 5.87
pIC50 [4]: > 7.50
pIC50 [5]: > 7.50
pIC50 [6]: > 7.50
viability, T/C [7]: 103%
viability, T/C [8]: 94.2%
viability, T/C [9]: 84.8%
viability, T/C [10]: 100%
viability, T/C [11]: 98.7%
viability, T/C [12]: 98.8%
viability, T/C [13]: 71.2%
viability, T/C [14]: 63.2%
viability, T/C [15]: 51.5%
viability, T/C [16]: 53.5%
viability, T/C [17]: 61.7%
viability, T/C [18]: 59.3%
viability, T/C [19]: 55.8%
viability, T/C [20]: 52.9%
viability, T/C [21]: 50.2%
viability, T/C [22]: 53.4%
viability, T/C [23]: 47.5%
viability, T/C [24]: 44.1%
viability, T/C [25]: 46%
viability, T/C [26]: 45.6%
viability, T/C [27]: 47.4%
viability, T/C [28]: 50.9%
viability, T/C [29]: 44.9%
viability, T/C [30]: 52.3%
viability, T/C [31]: 51.6%
viability, T/C [32]: 43.1%
viability, T/C [33]: 47.5%
viability, T/C [34]: 39.2%
viability, T/C [35]: 40.3%
viability, T/C [36]: 28.5%
viability, T/C [37]: 49.4%
viability, T/C [38]: 42.4%
viability, T/C [39]: 41.9%
viability, T/C [40]: 41.4%
viability, T/C [41]: 47.5%
viability, T/C [42]: 29.7%

Reference: PubChem BioAssay AID2060611 (Molecular Pharmacology Branch, DTP, NCI, 2025)
